In US12006302B2, “Tau PET imaging ligands” (Janssen Pharmaceutica NV, priority 2016, dated 2024):

Assays:
[1] = tested on: tau pathology in human AD slices; assay: [18F]Co. No. 1 binding to human AD tissue in the presence of MAO binders; settings: 0.2 mCi/mL tracer; for effect on [18F]Co. No. 1 binding pattern in human AD slices: compound 10 μM
Method: c) Binding of [^18F] Co. No. 1 to human AD tissue was assessed in the presence of reported MAO binders. […] This binding pattern was maintained when the sample was incubated with 10 μM of clorgiline, a strong irreversible MAO binder with moderate selectivity for the A-subtype (FIG. 7B), or 10 μM selegiline (=deprenyl), a strong irreversible MAO-B binder (FIG. 7C). The binding of [^18F] […] Adjacent AD slices were immunostained with anti-tau (AT8) and anti-Aβ (4G8) antibodies to correlate with [^18F]Co. No. 1 binding (FIG. 8).

[2] = tested on: NFTs / cortical tau-rich regions; assay: digital autoradiography with [18F]Co. No. 1 on human AD visual cortex slices, with blocking; assay type: binding
Method: Adjacent slices were immunostained for tau pathology (B, AT8) and for amyloid beta pathology (C, 4G8).
a) Air-dried frozen, 10-μm-thick slices of the visual cortex of an AD-patient (with Braak stage V-VI) were incubated for 60 min with [^18F]Co. No. 1 (7.4 kBq/500 μL per slice) and subsequently washed with mixtures of PBS and ethanol as described elsewhere (Xia C. F., Arteaga J., Chen G., et al. Alzheimer's Dement. 2013, 1-11). To assess specificity of binding, slices were incubated with tracer in the presence of 1 μM of authentic T808 or Co. No. 1. After drying, slices were exposed to a phosphor storage screen (super-resolution screen, Perkin Elmer). Screens were read in a Cyclone Plus system (Perkin Elmer, Waltham, MA, U.S.A.) and analyzed using Optiquant software. Results are expressed as digital light units per square mm (DLU/mm^2). Adjacent AD slices were immunostained with anti-tau (AT8) and anti-Aβ antibodies (4G8), to correlate with [^18F]Co. No. 1 binding.

[3] = microPET imaging, Wistar rats; assay type: in vivo, Wistar rat; settings: for SUV value at 60 min p.i. (brain wash-out) / initial brain uptake, high intensity SUV value in the brain: baseline scan, whole brain; for initial brain uptake, high intensity SUV value in the brain: IV about 50 MBq; for effect of pre-treatment / chase with cold compound on brain uptake: pre-treatment 10 mg/kg SC 60 min before, chase 1 mg/kg IV 30 min after tracer
Method: Three separate studies are shown: a baseline scan (only tracer), a pre-treatment experiment (cold Co. No. 1 or T807, 10 mg/kg injected subcutaneously 60 min prior to radiotracer injection), and a chase study (cold Co. No. 1 or T807, 1 mg/kg injected intravenously 30 min after radiotracer injection).
A dynamic 120-min μPET scan with [^18F]Co. No. 1 or [^18F]T807 was acquired on a Focus 220 μPET scanner (Concorde Microsystems, Knoxville, TN, U.S.A.) on three female Wistar rats simultaneously. The rats were kept under gas anaesthesia during the whole procedure (2.5% isoflurane in O2 at 1 L/min flow rate). Scans were acquired in list mode and acquisition data were Fourier rebinned in 24 time frames (4×15 s, 4×60 s, 5×180 s, 8×300 s, 3×600 s). Data, which were 3D maximum a posteriori (3D-MAP) reconstructed, were manually aligned with a rat brain ^18F-FDG template in Paxinos coordinates using an affine transformation, to allow predefined volumes of interest (VOIs) analysis (Casteels C., et al. J. Nucl. Med. 2006, 47, 1858-1866). Time-activity curves (TACs) of the whole brain were generated using VOIs with PMOD software (v 3.2, PMOD Technologies, Zürich, Switzerland). Radioactivity concentration in the brain was expressed as standardized uptake value (SUV, calculated as (radioactivity in Bq in brain/mL)/(total injected dose (Bq)/body weight in g)) as a function of time after tracer injection. Scans were started immediately after IV injection of about 50 MBq radiotracer (n=3/tracer). For pre-treatment and displacement studies, cold reference compound Co. No. 1 or T807 was dissolved in a mixture of 5% DMSO, 5% Tween 80 and 40% (2-hydroxypropyl)-β-cyclodextrin, filtered through a 0.22-μm membrane filter (Millex-GV. Millipore) prior to injection. Pre-treatment (n=1) was done by subcutaneous (SC) injection of 10 mg/kg of Co. No. 1 or T807, 60 min prior to radiotracer injection. Displacement (n=1) was performed by IV injection of 1 mg/kg Co. No. 1 or T807 30 min after radiotracer injection. μPET images were compared to a baseline scan (n=1), acquired in a non-treated rat.

[4] = microPET imaging, rhesus monkey; assay type: in vivo, rhesus monkey (Macaca mulatta); settings: baseline scan; for initial brain uptake, SUV value: total brain, IV 185 MBq
Method: A dynamic 120-min μPET scan with [^18F]Co. No. 1 or [^18F]T807 was performed with a Focus 220 μPET scanner on a rhesus monkey (6 y-old male Macaca mulatta, 7.6 kg), that was sedated with ketamine (Ketalar®) and xylazine (Rompun®) via intramuscular (IM) injection. During scanning the monkey received repeatedly an additional dose of ketamine/xylazine via IV injection. O2 saturation in blood, breathing frequency and heartbeat frequency were monitored during the entire experiment. The head of the animal was placed central in the field of view of the μPET scanner. Scans were acquired in list mode and Fourier rebinned in 24 time frames (4×15 s, 4×60 s, 5×180 s, 8×300 s, 3×600 s). Data were reconstructed using a 3D maximum a posteriori (3D-MAP) iterative reconstruction. TACs of the whole brain were generated using VOIs with PMOD software. Radioactivity concentration in the brain is expressed as SUV as a function of time after tracer injection. Scans were started immediately after IV injection of 185 MBq of [^18F]Co. No. 1 or [^18F]T807 via the vena saphena of the right leg. For the pre-treatment study, cold reference compound Co. No. 1 was dissolved in a mixture of 10% DMSO and 40% (2-hydroxypropyl)-o-cyclodextrin, filtered through a 0.22-μm membrane filter (Millex-GV, Millipore) prior to injection. Pre-treatment (n=1) was done by IV co-injection of 1 mg/kg of cold Co. No. 1 and radiotracer solution. μPET images were compared to a baseline scan (n=1), acquired in the non-treated monkey.

[5] = molecular target: T1, extracted human amyloid-beta aggregates (Homo sapiens, UniProt P05067); assay: competitive radioligand binding assay, [3H]-AV-45 displacement
T1 construct: amyloid plaques which form by aggregation of beta-amyloid peptide; from tissue; host or cells: human AD brain, occipital cortex with high amyloid plaque load
Method: Enriched aggregated β-amyloid preps were prepared from frozen human AD brain samples (10 g—occipital cortex with high amyloid plaques load) that were homogenized with 7-fold vol of cold homogenization buffer (250 mM sucrose, 20 mM Tris base, 1 mM EDTA, 1 mM EGTA and PhosSTOP phosphatase and cOmplete EDTA-free protease inhibitor) on ice. After centrifugation at 27 000×g for 20 min at 4° C. cell debris was removed. Supernatant containing amyloid plaques was aliquoted and stored at −80° C.
The competitive radioligand binding assays measure the binding of a radiolabeled reference ligand in the presence of a dose response concentration range of test compounds.
(§1) Values for half-maximal inhibitory concentration (IC50) were determined from displacement curves of at least two independent experiments using GraphPad Prism software (GraphPad Software, San Diego, CA).
To determine compound binding to aggregated β-amyloid a similar assay was put in place but with some minor modifications. […] Nonspecific binding was determined in the presence of 500 μM Thioflavin T. After 150 min incubation at room temperature, the binding mixtures were filtered over GF/B glass filters. […]

[6] = molecular target: extracted human tau aggregates (Homo sapiens, UniProt P10636); assay: competitive radioligand binding assay, [3H]-T808 displacement
Method: Briefly, frozen human AD brain samples (˜10 g) were homogenized with 10 vol of cold homogenization buffer (10 mM Tris, 800 mM NaCl, 1 mM EGTA, 10% sucrose, pH 7.4 containing PhosSTOP phosphatase and cOmplete EDTA-free protease inhibitor (Roche, Vilvoorde, Belgium)) on ice. After centrifugation at 27 000×g for 20 min at 4° C. the supernatant was recovered and 1% (w/v) N-lauroylsarcosine and 1% (v/v) 2-mercaptoethanol were added. The N-lauroylsarcosine/2-mercaptoethanol supernatant was incubated for 2 h at 37° C. while shaking on an orbital shaker. Subsequently, ultracentrifugation at 108 000×g for 1.5 h at room temperature enriched aggregated tau in the pellet. Supernatant was removed and the pellet was carefully rinsed twice with a small amount of TBS (50 mM Tris, 150 mM NaCl, pH 7.4). […]
Briefly, aggregated tau preps were diluted to 100 μg protein/mi in PBS buffer with 5% ethanol. […] After overnight drying of the filter plate, Microscint O liquid (Perkin Elmer) was added and the amount of radiolabeled ligand bound to the fibrils is measured by liquid scintillation counting in a Topcount instrument (Packard Instrument Company, Connecticut, USA).
as §1

MAO = assay: in vitro binding of tritiated tracers to MAO-rich human tissue (striatum); settings: cold compound 10 μM; 10 nM [3H]-THK-5351
Method: The tracer was tested at 10 nM and higher concentrations were not investigated in this study.
In comparison, the tau tracer [^3H]-THK-5351 and the Aβ tracer [^3H]-AV-45 were used as THK-5351 is known to also bind MAO.

Sequence of extracted human tau aggregates (P10636 623-695 limits assumed): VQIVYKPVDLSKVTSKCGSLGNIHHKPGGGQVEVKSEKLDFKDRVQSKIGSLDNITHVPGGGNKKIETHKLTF
T1 sequence (P05067 672-713 limits assumed): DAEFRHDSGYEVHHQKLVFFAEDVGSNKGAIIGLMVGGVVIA

With `Cl.FCCCOc1ccc(Nc2ccc3cnccc3c2)nc1` the melting point was 249.3 °C.

With `C#CCN(C)[C@H](C)Cc1ccccc1` [selegiline, reference compound] the “effect on [18F]Co. No. 1 binding pattern in human AD slices” value (“effect on [18F]Co. No. 1 binding pattern” for short) [1] was “maintained”.

In the case of `Cc1ccc(Nc2ccc3cnccc3c2)nc1F` [Co. No. 2], the melting point is reported as 203.3 °C.

`FCCOc1ccc(Nc2ccc3cnccc3c2)nc1` [Co. No. 9] gave a melting point of 104.6 °C.

Compound `Cl.FCCCNc1ccc(Nc2ccc3cnccc3c2)nc1` has a melting point of 285.1 °C.

Compound `FCCc1ccc(Nc2ccc3cnccc3c2)nc1` [Co. No. 3] has a melting point of 208.5 °C.

For `Cc1cnc(Nc2ccc3cnccc3c2)cc1[18F]` [[^18F]Co. No. 1], the “tracer binding in digital autoradiography” value ([2]; 7.4 kBq/500 μL per slice, human AD slices) was “high and selective binding to cortical tau-rich regions”, the “tracer binding to tau pathology in human AD slices” value [1] was “strong binding” and the “SUV value at 60 min p.i. (brain wash-out)” value [3] was 0.2. For the same compound, the “initial brain uptake, high intensity SUV value in the brain” value [3] was about 2.0, the “effect of pre-treatment / chase with cold compound on brain uptake” value [3] was “No self-blocking or self-chase effect” and the brain wash-out [4] was “rapid wash-out”. For the same compound, the “distribution over brain regions” value [4] was “homogeneous distribution” and the “initial brain uptake, SUV value” [4] was about 5.4.

Compound `FCOc1ccc(Nc2ccc3cnccc3c2)nc1` [Co. No. 4] has a melting point of 173.1 °C.

With `C#CCN(C)CCCOc1ccc(Cl)cc1Cl` [clorgiline, reference compound] the “effect on [18F]Co. No. 1 binding pattern” value [1] was “maintained”.

`CN(CCF)c1ccc(Nc2ccc3cnccc3c2)nc1` [Co. No. 6] showed a melting point of 146.3 °C.

For `Cc1cnc(Nc2ccc3cnccc3c2)cc1F` [Co. No. 1], the melting point was 182.53 °C, the IC50 ([5]; displacement of [3H]-AV-45 (10 nM), read-out: pIC50, binding to extracted human amyloid-beta aggregates (converted)) was 6.61 µM and the Ki ([5]; displacement of [3H]-AV-45, read-out: Ki corresponding to pIC50, extracted human amyloid-beta aggregates (converted)) was 3.2 µM. For the same compound, the IC50 ([6]; displacement of [3H]-T808 (10 nM), read-out: pIC50, binding to extracted human tau aggregates (converted)) was 0.00575 µM, the Ki ([6]; displacement of [3H]-T808, read-out: Ki corresponding to pIC50, extracted human tau (converted)) was 0.0024 µM and the “inhibition of [18F]Co. No. 1 binding” value ([2]; blocker 1 μM, human AD visual cortex slices) was 99%. For the same compound, the “blocking of [3H]-THK-5351 binding to MAO-rich human tissue” value (MAO) was “blocked” and the “effect on [18F]Co. No. 1 binding pattern” value [1] was “entirely blocked”.

`FCCNc1ccc(Nc2ccc3cnccc3c2)nc1` [Co. No. 5] showed a melting point of 191.4 °C.

In the case of `[18F]c1ccc(-c2ccc3c(c2)[nH]c2ccncc23)cn1` [[^18F]T807, reference compound], the “SUV value at 60 min p.i. (brain wash-out)” value [3] is reported as 0.4, the “initial brain uptake, high intensity SUV value in the brain” value [3] is reported as about 1.8 and the “effect of pre-treatment / chase with cold compound on brain uptake” value [3] is reported as “Lower brain uptake during the baseline scan”. For the same compound, the brain wash-out [4] was “slower” and the “initial brain uptake, SUV value” [4] was about 1.3.

In the case of `CNc1ccc(-c2ccc3cc(OC[C@H](O)CF)ccc3n2)cn1` [THK-5351, reference compound], the “blocking of [3H]-THK-5351 binding to MAO-rich human tissue” value (MAO) is reported as “self-blocked”.
